Patent US20180188224A1, “METHOD FOR CONSTRUCTING A SENSORY SPACE” (CENTRE SCIENTIFIQUE ET TECHNIQUE DU BATIMENT (CSTB), priority 2015, published 2018)
Values joined by “and” are separate entries in the source; they are usually repeats but may differ in a detail not shown here. Equal entries are not always repeated.

How the values were obtained:
[1] = cited from earlier work
[2] = tested on: four non-smoking volunteers (2 men and 2 women); assay: Taste identification questionnaire, trained panel (count of 6 repetitions per subject in which the stimulus was given each taste label; level of recognition %); assay type: in vivo, human; details: for Level of Recognition %: Neutral / Level of Recognition %: Salty / Level of Recognition %: Sour / Level of Recognition %: Sweet: four subjects
Description: (§1) In this test, four non-smoking volunteers (2 men and 2 women) were chosen from 12 people for their performance in taste recognition. Their mean age was 32 years, ranging from 24 to 40 years. […] These four people were trained for several months to recognize and detect the four basic tastes, and also regarding the procedures of sensory and physiological analysis.
(§2) The four basic tastes (sweet, salty, sour and bitter) were used. The solutions were prepared with citric acid for the sour taste, caffeine for the bitter taste, sodium chloride for the salty taste and sucrose for the sweet taste (all purchased from Sigma Aldrich, France) in Evian water. Evian water was also used as control and blank. Each taste was prepared with the four concentrations mentioned in table 1.
(§3) The amount of solution to be tested was standardized at 10 ml. In order to impregnate the whole of the oral cavity, the subjects kept the solution in their mouth for 5 s before swallowing it.
(§4) The sessions were individual and the subjects were asked not to eat or drink anything for at least 1 h before the test. They arrived 15 min before the start of the session in order to acclimatize to the environmental conditions, in particular the temperature of the room (kept constant at 23° C.) and to be resting seated on a comfortable chair. The 16 solutions for testing and two additional samples of water containing solely Evian water, added to the references, were presented monadically following a test order determined from a “balanced incomplete block design”. During a session, 9 samples out of 18 were presented to minimize sensory fatigue. In addition, a sample of Evian was always tested as a “blank” sample in order to avoid the first-order effect (Lawless, H. T. & Heymann, H., 2010, Sensory evaluation of food: Principles and practices. Springer, New York) and was excluded from the analysis. A light signal was sent to give the instruction to test the sample. When the disturbance to the nervous system returned to its baseline level (after approximately 1 min), a second light signal indicated to the subjects that they should complete a questionnaire regarding the stimulus tested previously. The first part of the questionnaire was linked to the identification of the taste (i.e. determining the quality of the taste); the subjects had to choose between five labels: sweet, salty, sour, bitter or neutral. They then had to assign a taste intensity score on an 11-point scale (from 0 “not intense” (i.e. taste of Evian only) to 10 “very intense”) and finally to give a hedonic score on an 11-point scale (from 0 “very unpleasant” to 10 “very pleasant”, 5 being “neutral”).
(§5) This procedure was repeated for each of the 9 stimuli. A session lasted approximately 45 min including a debriefing at the end of the test to ensure understanding of the sense of the signal variations. The experiment was repeated 12 times per subject, meaning that the data are composed of 6 data sets per subject and per product and 12 data sets for the Evian product per subject. Thus, the database consists of 432 samples.

[3] = tested on: four non-smoking volunteers (2 men and 2 women); assay: Hedonic score, 11-point scale (0 very unpleasant to 10 very pleasant, 5 neutral); assay type: in vivo, human; details: each of the NaCl concentrations (one value given)
Description: as §1, §2, §3, §4, §5
(§6) The effect of the taste on the hedonic and intensity scores was analyzed by an analysis of variance (ANOVA) including the product effect, the subject effect and the product-subject interaction. The subject effect was fixed because there were only 4 subjects and the results could only be applied to a particular schema. The differences were considered to be significant at a level of 0.05.

[4] = tested on: four non-smoking volunteers (2 men and 2 women); assay: Taste intensity score, 11-point scale (0 not intense to 10 very intense); assay type: in vivo, human; details: concentration 4; averaged over 4 subjects, 6 repetitions each
Description: as §1, §2, §3, §4, §5, §6

[Cl-].[Na+] [NaCl, sodium chloride]
detection threshold concentration of the basic taste ([1]; literature (Purves 2005; Robinson 2005)): approximately 10 mmol·l^−1
detection threshold ([1]; representative compound of a primary taste): 0.584 g/L
Individual recognition score: Neutral ([2]; Subject 1, dilution 1): 0
Individual recognition score: Salty ([2]; Subject 1, dilution 1): 6
Individual recognition score: Sour ([2]; Subject 1, dilution 1): 0
Individual recognition score: Sweet ([2]; Subject 1, dilution 1): 0
Individual recognition score: Neutral ([2]; Subject 1, dilution 2): 0
Individual recognition score: Salty ([2]; Subject 1, dilution 2): 6
Individual recognition score: Sour ([2]; Subject 1, dilution 2): 0
Individual recognition score: Sweet ([2]; Subject 1, dilution 2): 0
Individual recognition score: Neutral ([2]; Subject 1, dilution 3): 0
Individual recognition score: Salty ([2]; Subject 1, dilution 3): 6
Individual recognition score: Sour ([2]; Subject 1, dilution 3): 0
Individual recognition score: Sweet ([2]; Subject 1, dilution 3): 0
Individual recognition score: Neutral ([2]; Subject 1, dilution 4): 0
Individual recognition score: Salty ([2]; Subject 1, dilution 4): 6
Individual recognition score: Sour ([2]; Subject 1, dilution 4): 0
Individual recognition score: Sweet ([2]; Subject 1, dilution 4): 0
Individual recognition score: Neutral ([2]; Subject 2, dilution 1): 0
Individual recognition score: Salty ([2]; Subject 2, dilution 1): 6
Individual recognition score: Sour ([2]; Subject 2, dilution 1): 0
Individual recognition score: Sweet ([2]; Subject 2, dilution 1): 0
Individual recognition score: Neutral ([2]; Subject 2, dilution 2): 0
Individual recognition score: Salty ([2]; Subject 2, dilution 2): 6
Individual recognition score: Sour ([2]; Subject 2, dilution 2): 0
Individual recognition score: Sweet ([2]; Subject 2, dilution 2): 0
Individual recognition score: Neutral ([2]; Subject 2, dilution 3): 0
Individual recognition score: Salty ([2]; Subject 2, dilution 3): 6
Individual recognition score: Sour ([2]; Subject 2, dilution 3): 0
Individual recognition score: Sweet ([2]; Subject 2, dilution 3): 0
Individual recognition score: Neutral ([2]; Subject 2, dilution 4): 0
Individual recognition score: Salty ([2]; Subject 2, dilution 4): 6
Individual recognition score: Sour ([2]; Subject 2, dilution 4): 0
Individual recognition score: Sweet ([2]; Subject 2, dilution 4): 0
Individual recognition score: Neutral ([2]; Subject 3, dilution 1): 0
Individual recognition score: Salty ([2]; Subject 3, dilution 1): 6
Individual recognition score: Sour ([2]; Subject 3, dilution 1): 0
Individual recognition score: Sweet ([2]; Subject 3, dilution 1): 0
Individual recognition score: Neutral ([2]; Subject 3, dilution 2): 0
Individual recognition score: Salty ([2]; Subject 3, dilution 2): 6
Individual recognition score: Sour ([2]; Subject 3, dilution 2): 0
Individual recognition score: Sweet ([2]; Subject 3, dilution 2): 0
Individual recognition score: Neutral ([2]; Subject 3, dilution 3): 0
Individual recognition score: Salty ([2]; Subject 3, dilution 3): 6
Individual recognition score: Sour ([2]; Subject 3, dilution 3): 0
Individual recognition score: Sweet ([2]; Subject 3, dilution 3): 0
Individual recognition score: Neutral ([2]; Subject 3, dilution 4): 0
Individual recognition score: Salty ([2]; Subject 3, dilution 4): 6
Individual recognition score: Sour ([2]; Subject 3, dilution 4): 0
Individual recognition score: Sweet ([2]; Subject 3, dilution 4): 0
Individual recognition score: Neutral ([2]; Subject 4, dilution 1): 0
Individual recognition score: Salty ([2]; Subject 4, dilution 1): 5
Individual recognition score: Sour ([2]; Subject 4, dilution 1): 0
Individual recognition score: Sweet ([2]; Subject 4, dilution 1): 0
Individual recognition score: Neutral ([2]; Subject 4, dilution 2): 0
Individual recognition score: Salty ([2]; Subject 4, dilution 2): 6
Individual recognition score: Sour ([2]; Subject 4, dilution 2): 0
Individual recognition score: Sweet ([2]; Subject 4, dilution 2): 0
Individual recognition score: Neutral ([2]; Subject 4, dilution 3): 0
Individual recognition score: Salty ([2]; Subject 4, dilution 3): 6
Individual recognition score: Sour ([2]; Subject 4, dilution 3): 0
Individual recognition score: Sweet ([2]; Subject 4, dilution 3): 0
Individual recognition score: Neutral ([2]; Subject 4, dilution 4): 0
Individual recognition score: Salty ([2]; Subject 4, dilution 4): 6
Individual recognition score: Sour ([2]; Subject 4, dilution 4): 0
Individual recognition score: Sweet ([2]; Subject 4, dilution 4): 0
Level of Recognition %: Neutral ([2]; dilution 1): 0%
Level of Recognition %: Salty ([2]; dilution 1): 96%
Level of Recognition %: Sour ([2]; dilution 1): 0%
Level of Recognition %: Sweet ([2]; dilution 1): 0%
Level of Recognition %: Neutral ([2]; dilution 2): 0%
Level of Recognition %: Salty ([2]; dilution 2): 100%
Level of Recognition %: Sour ([2]; dilution 2): 0%
Level of Recognition %: Sweet ([2]; dilution 2): 0%
Level of Recognition %: Neutral ([2]; dilution 3): 0%
Level of Recognition %: Salty ([2]; dilution 3): 100%
Level of Recognition %: Sour ([2]; dilution 3): 0%
Level of Recognition %: Sweet ([2]; dilution 3): 0%
Level of Recognition %: Neutral ([2]; dilution 4): 0%
Level of Recognition %: Salty ([2]; dilution 4): 100%
Level of Recognition %: Sour ([2]; dilution 4): 0%
Level of Recognition %: Sweet ([2]; dilution 4): 0%
Individual recognition score: Bitter ([2]; human, in vivo): 0 (15×) and 1
Level of Recognition %: Bitter ([2]; human, in vivo): 4% and 0%
hedonic score [3]: 1.3±0.9
intensity score [4]: 8.6±1.0
